# Reference: patent US12617783B2, “Heterocyclic GLP-1R agonists” (BIOMEA FUSION, INC., priority 2024, dated 2026)
# Molecular target: T1, human GLP-1R (Homo sapiens, UniProt P43220)
# T1 construct: host or cells: HEK293
# Test: GLP-1R cAMP assay (Example B1a, HTRF, 30 min at room temperature)
# Type: cell-based
# Conditions: cAMP accumulation in HEK293 expressing human GLP-1R, no BETP, 30 min room temperature (Method B1a, compounds ID 1-609), Table 1; read-out: EC50
# Outline: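 Competitive HTRF read-out of cAMP after 30 min room-temperature stimulation, BETP absent, of human GLP-1R-HEK293 cells (1,000/well) in HEPES buffer with 500 μM IBMX and 0.1% BSA. Activation normalised to GLP-1(7-37) positive control. EC50 from 4-parameter non-linear regression.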
# T1 sequence (P43220 24-463): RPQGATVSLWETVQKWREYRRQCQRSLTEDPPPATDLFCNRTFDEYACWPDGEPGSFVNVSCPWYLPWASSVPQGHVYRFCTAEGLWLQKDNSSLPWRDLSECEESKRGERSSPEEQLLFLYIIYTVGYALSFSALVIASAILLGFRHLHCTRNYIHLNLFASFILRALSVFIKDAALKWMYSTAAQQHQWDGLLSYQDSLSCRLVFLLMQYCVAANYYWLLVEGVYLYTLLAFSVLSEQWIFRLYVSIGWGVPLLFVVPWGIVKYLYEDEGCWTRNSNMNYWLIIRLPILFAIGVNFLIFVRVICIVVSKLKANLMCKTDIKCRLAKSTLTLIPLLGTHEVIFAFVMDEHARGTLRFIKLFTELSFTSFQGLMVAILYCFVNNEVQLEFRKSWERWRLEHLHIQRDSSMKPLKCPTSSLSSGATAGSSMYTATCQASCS
row,SMILES,EC50
1,"Cc1cc(-n2nc3c(c2-n2ccn(-c4ccc5c(cnn5C)c4F)c2=O)[C@H]2CC[C@@H](C3)N2C(=O)c2cc3cc([C@@H]4CCOC5(CC5)C4)ccc3n2[C@@]2(c3noc(=O)[nH]3)C[C@@H]2C)cc(C)c1F [Compound 414, 3-((1S,2S)-1-(2-((4R,7S)-3-(3-(4-fluoro-1-methyl-1H-indazol-5-yl)-2-oxo-2,3-dihydro-1H-imidazol-1-yl)-2-(4-fluoro-3,5-dimethylphenyl)-2,4,5,6,7,8-hexahydro-4,7-epiminocyclohepta [c]pyrazole-9-carbonyl)-5-((R)-4-oxaspiro[2.5]octan-7-yl)-1H-indol-1-yl)-2-methylcyclopropyl)-1,2,4-oxadiazol-5 (4H)-one]",≥ 10000 nM
2,"Cc1cc(-n2nc3c(c2-n2ccn(-c4ccc5c(cnn5C)c4F)c2=O)[C@@H]2CC[C@H](C3)N2C(=O)c2cc3cc(C4CCOC5(CCC5)C4)ccc3n2[C@@]2(c3noc(=O)[nH]3)C[C@@H]2C)cc(C)c1F (stereo partly drawn) [Compound 415, 3-((1S,2S)-1-(2-((4S,7R)-3-(3-(4-fluoro-1-methyl-1H-indazol-5-yl)-2-oxo-2,3-dihydro-1H-imidazol-1-yl)-2-(4-fluoro-3,5-dimethylphenyl)-2,4,5,6,7,8-hexahydro-4,7-epiminocyclohepta [c]pyrazole-9-carbonyl)-5-(5-oxaspiro[3.5]nonan-8-yl)-1H-indol-1-yl)-2-methylcyclopropyl)-1,2,4-oxadiazol-5 (4H)-one]",361 nM
3,"Cc1cc(-n2nc3c(c2-n2ccn(-c4ccc5c(cnn5C)c4F)c2=O)CN(C(=O)c2cc4cc([C@H]5CCOC(C)(C)C5)ccc4n2[C@@]2(c4noc(=O)[nH]4)C[C@@H]2C)CCC3)cc(C)c1F [Compound 416, 3-((1S,2S)-1-(5-((S)-2,2-dimethyltetrahydro-2H-pyran-4-yl)-2-(3-(3-(4-fluoro-1-methyl-1H-indazol-5-yl)-2-oxo-2,3-dihydro-1H-imidazol-1-yl)-2-(4-fluoro-3,5-dimethylphenyl)-2,4,5,6,7,8-hexahydropyrazolo[4,3-c]azepine-5-carbonyl)-1H-indol-1-yl)-2-methylcyclopropyl)-1,2,4-oxadiazol-5(4H)-one]",162 nM
4,"Cc1cc(-n2nc3c(c2-n2ccn(-c4ccc5c(cnn5C)c4F)c2=O)[C@@H]2CC[C@H](C3)N2Cc2cc3cc([C@H]4CCOC(C)(C)C4)ccc3n2[C@@]2(c3noc(=O)[nH]3)C[C@@H]2C)cc(C)c1F [Compound 417, 3-((1S,2S)-1-(5-((S)-2,2-dimethyltetrahydro-2H-pyran-4-yl)-2-(((4S,7R)-3-(3-(4-fluoro-1-methyl-1H-indazol-5-yl)-2-oxo-2,3-dihydro-1H-imidazol-1-yl)-2-(4-fluoro-3,5-dimethylphenyl)-2,4,5,6,7,8-hexahydro-4,7-epiminocyclohepta [c]pyrazol-9-yl)methyl)-1H-indol-1-yl)-2-methylcyclopropyl)-1,2,4-oxadiazol-5(4H)-one]",110 nM
5,"Cc1cc(-n2nc3c(c2-n2ccn(-c4ccc5c(cnn5C)c4F)c2=O)[C@@H]2CC[C@H](C3)N2C(=O)c2cc3cc(C4COC(C)(C)C4)ccc3n2[C@@]2(c3noc(=O)[nH]3)C[C@@H]2C)cc(C)c1F (stereo partly drawn) [Compound 418, 3-[(1S,2S)-1-[5-(5,5-dimethyltetrahydrofuran-3-yl)-2-[(1S,8R)-4-(4-fluoro-3,5-dimethyl-phenyl)-3-[3-(4-fluoro-1-methyl-indazol-5-yl)-2-oxo-imidazol-1-yl]-4,5,11-triazatricyclo[6.2.1.02,6]undeca-2,5-diene-11-carbonyl]indol-1-yl]-2-methyl-cyclopropyl]-4H-1,2,4-oxadiazol-5-one]",836 nM
6,"Cc1cc(-n2nc3c(c2-n2ccn(-c4ccc5c(cnn5C)c4F)c2=O)[C@@H]2CC[C@H](C3)N2C(=O)c2cc3cc([C@H]4CCOC4(C)C)ccc3n2[C@@]2(c3noc(=O)[nH]3)C[C@@H]2C)cc(C)c1F [Compound 419, 3-[(1S,2S)-1-[5-[(3R)-2,2-dimethyltetrahydrofuran-3-yl]-2-[(1S,8R)-4-(4-fluoro-3,5-dimethyl-phenyl)-3-[3-(4-fluoro-1-methyl-indazol-5-yl)-2-oxo-imidazol-1-yl]-4,5,11-triazatricyclo[6.2.1.02,6]undeca-2,5-diene-11-carbonyl]indol-1-yl]-2-methyl-cyclopropyl]-4H-1,2,4-oxadiazol-5-one]",≥ 10000 nM
7,"Cc1cc(-n2nc3c(c2-n2ccn(-c4ccc5c(cnn5C)c4F)c2=O)[C@@H]2CC[C@H](C3)N2C(=O)c2cc3cc([C@@H]4CCOC4(C)C)ccc3n2[C@@]2(c3noc(=O)[nH]3)C[C@@H]2C)cc(C)c1F [Compound 420, 3-[(1S,2S)-1-[5-[(3S)-2,2-dimethyltetrahydrofuran-3-yl]-2-[(1S,8R)-4-(4-fluoro-3,5-dimethyl-phenyl)-3-[3-(4-fluoro-1-methyl-indazol-5-yl)-2-oxo-imidazol-1-yl]-4,5,11-triazatricyclo[6.2.1.02,6]undeca-2,5-diene-11-carbonyl]indol-1-yl]-2-methyl-cyclopropyl]-4H-1,2,4-oxadiazol-5-one]",650 nM

# Next, values leading:
row,EC50,SMILES
1,≥ 10000 nM,"Cc1cc(-n2nc3c(c2-n2ccn(-c4ccc5c(cnn5C)c4F)c2=O)CCN(C(=O)c2cc4cc([C@H]5CCOC(C)(C)C5)ccc4n2[C@@]2(c4noc(=O)[nH]4)C[C@@H]2C)CC3)cc(C)c1F [Compound 421, 3-[(1S,2S)-1-[5-[(4S)-2,2-dimethyltetrahydropyran-4-yl]-2-[2-(4-fluoro-3,5-dimethyl-phenyl)-3-[3-(4-fluoro-1-methyl-indazol-5-yl)-2-oxo-imidazol-1-yl]-4,5,7,8-tetrahydropyrazolo[3,4-d]azepine-6-carbonyl]indol-1-yl]-2-methyl-cyclopropyl]-4H-1,2,4-oxadiazol-5-one]"
2,303 nM,"Cc1cc(-n2nc3c(c2-n2ccn(-c4cccc(C(N)=O)c4F)c2=O)[C@@H]2CC[C@H](C3)N2C(=O)c2cc3cc([C@H]4CCOC(C)(C)C4)ccc3n2[C@@]2(c3noc(=O)[nH]3)C[C@@H]2C)cc(C)c1F [Compound 422, 3-[3-[(1S,8R)-11-[5-[(4S)-2,2-dimethyltetrahydropyran-4-yl]-1-[(1S,2S)-2-methyl-1-(5-oxo-4H-1,2,4-oxadiazol-3-yl)cyclopropyl]indole-2-carbonyl]-4-(4-fluoro-3,5-dimethyl-phenyl)-4,5,11-triazatricyclo[6.2.1.02,6]undeca-2,5-dien-3-yl]-2-oxo-imidazol-1-yl]-2-fluoro-benzamide]"
3,2120 nM,"Cc1cc(-n2nc3c(c2-n2ccn(-c4ccc5c(cnn5C)c4F)c2=O)[C@@H]2CC[C@H](C3)N2C(=O)c2cc3cc([C@H]4COC(C)(C)C4)ccc3n2[C@@]2(c3noc(=O)[nH]3)C[C@@H]2C)cc(C)c1F [Compound 423, 3-[(1S,2S)-1-[5-[(3S)-5,5-dimethyltetrahydrofuran-3-yl]-2-[(1S,8R)-4-(4-fluoro-3,5-dimethyl-phenyl)-3-[3-(4-fluoro-1-methyl-indazol-5-yl)-2-oxo-imidazol-1-yl]-4,5,11-triazatricyclo[6.2.1.02,6]undeca-2,5-diene-11-carbonyl]indol-1-yl]-2-methyl-cyclopropyl]-4H-1,2,4-oxadiazol-5-one]"
4,≥ 10000 nM,"Cc1cc(-n2nc3c(c2-n2ccn(-c4ccc5c(cnn5C)c4F)c2=O)[C@@H]2CC[C@H](C3)N2C(=O)c2cc3cc([C@@H]4CCOC5(CCC5)C4)ccc3n2[C@@]2(c3noc(=O)[nH]3)C[C@@H]2C)cc(C)c1F [Compound 424, 3-((1S,2S)-1-(2-((4S,7R)-3-(3-(4-fluoro-1-methyl-1H-indazol-5-yl)-2-oxo-2,3-dihydro-1H-imidazol-1-yl)-2-(4-fluoro-3,5-dimethylphenyl)-2,4,5,6,7,8-hexahydro-4,7-epiminocyclohepta [c]pyrazole-9-carbonyl)-5-((R)-5-oxaspiro[3.5]nonan-8-yl)-1H-indol-1-yl)-2-methylcyclopropyl)-1,2,4-oxadiazol-5(4H)-one]"
5,292 nM,"Cc1cc(-n2nc3c(c2-n2ccn(-c4ccc5c(cnn5C)c4F)c2=O)[C@@H]2CC[C@H](C3)N2C(=O)c2cc3cc([C@@H]4COC(C)(C)C4)ccc3n2[C@@]2(c3noc(=O)[nH]3)C[C@@H]2C)cc(C)c1F [Compound 425, 3-[(1S,2S)-1-[5-[(3R)-5,5-dimethyltetrahydrofuran-3-yl]-2-[(1S,8R)-4-(4-fluoro-3,5-dimethyl-phenyl)-3-[3-(4-fluoro-1-methyl-indazol-5-yl)-2-oxo-imidazol-1-yl]-4,5,11-triazatricyclo[6.2.1.02,6]undeca-2,5-diene-11-carbonyl]indol-1-yl]-2-methyl-cyclopropyl]-4H-1,2,4-oxadiazol-5-one]"
6,134 nM,"Cc1cc(-n2nc3c(c2-n2ccn(-c4ccc5c(cnn5C)c4F)c2=O)[C@@H]2CC[C@H](C3)N2C(=O)c2cc3cc([C@H]4CCOC5(CCC5)C4)ccc3n2[C@@]2(c3noc(=O)[nH]3)C[C@@H]2C)cc(C)c1F [Compound 426, 3-((1S,2S)-1-(2-((4S,7R)-3-(3-(4-fluoro-1-methyl-1H-indazol-5-yl)-2-oxo-2,3-dihydro-1H-imidazol-1-yl)-2-(4-fluoro-3,5-dimethylphenyl)-2,4,5,6,7,8-hexahydro-4,7-epiminocyclohepta [c]pyrazole-9-carbonyl)-5-((S)-5-oxaspiro[3.5]nonan-8-yl)-1H-indol-1-yl)-2-methylcyclopropyl)-1,2,4-oxadiazol-5(4H)-one]"
7,77.1 nM,"Cc1cc(-n2nc3c(c2-n2ccn(-c4ccc5c(cnn5C)c4F)c2=O)C2CCCC(C3)N2C(=O)c2cc3cc([C@H]4CCOC(C)(C)C4)ccc3n2[C@@]2(c3noc(=O)[nH]3)C[C@@H]2C)cc(C)c1F (stereo partly drawn) [Compound 427, 3-((1S,2S)-1-(5-((S)-2,2-dimethyltetrahydro-2H-pyran-4-yl)-2-(3-(3-(4-fluoro-1-methyl-1H-indazol-5-yl)-2-oxo-2,3-dihydro-1H-imidazol-1-yl)-2-(4-fluoro-3,5-dimethylphenyl)-4,5,6,7,8,9-hexahydro-2H-4,8-epiminocycloocta [c]pyrazole-10-carbonyl)-1H-indol-1-yl)-2-methylcyclopropyl)-1,2,4-oxadiazol-5 (4H)-one]"
